# Test results: patent US4332895A, “Thermal stable beta-galactosidase” (National Research Development Corp., priority 1978, dated 1982)
# Where two headings read alike, the source gives them in different places.
# Assays:
# Type in all cases: biochemical
# [1] = system: β-galactosidase of Bacillus stearothermophilus HRI strains (HRI enzyme), purified enzyme; assay: β-galactosidase assay, purified enzyme, ONPG or lactose as substrate
# Protocol: The assay used is based on that of Lederberg (J. Bacteriol. 1950, 60, 381), using an assay mixture comprising 2.8 ml of 50 mM sodium phosphate, pH 7.0, and 0.1 ml of 68 mM ONPG. 0.1 ml aliquots of both purified enzyme and toluene-treated cell suspension, and 10 mg. amounts in 2.9 ml of buffer of freeze dried immobilised whole cell preparation are used for the assays. Assays are carried out at incubation temperature of 65° C. and after the appropriate time interval the reactions are halted by addition of 3 ml aliquots of 0.5 M sodium bicarbonate to each reaction mixture and immediate cooling in an ice bath. The absorbance of the resultant solutions is measured at 410 nm using a Perkin-Elmer 124 double beam spectrophotometer. In the case of whole cell suspensions the assay tubes are centrifuged and in the case of the immobilised cells the mixtures are filtered, to remove cells and polyacrylamide gel respectively prior to measurement of the absorbance.
# The assay mixture used comprises 0.9 ml of 50 mM sodium phosphate buffer, pH 7.0, 4 ml of lactose (4 g in 100 ml of phosphate buffer), to which 0.1 ml of purified enzyme or cell suspension or 10 mg of gel entrapped cell preparation is added. The reaction mixtures are incubated for 15 minutes at 65° C., reactions are halted by addition of 4.2% perchloric acid and the solutions are centrifuged. Aliquots of the supernatant solutions are assayed for glucose or galactose.
# Glucose is estimated by a modification of the method of Trinder (Ann. Clin. Biochem. 1969 6, 24). 1 ml aliquots of the supernatant solutions are assayed by addition to a mixture comprising 1 ml of 0.2% phenol and 3 ml of colour reagent (75 ml 4% (w/v) disodium hydrogen orthophosphate, 225 ml of water, 6 mg of glucose oxidase (Boehringer Corp. Ltd.), 0.15 ml peroxidase (Boehringer Corp. Ltd.), 100 mg of 4-aminophenazone and 300 mg of sodium azide) followed by incubation at 37° C. for 10 minutes and absorbance measurement at 515 nm.
# Galactose is estimated as follows: a sample (e.g. 0.2 ml) containing not more than 200 μg/ml of galactose is mixed with 2.5 ml of buffer (4.8 g Na2 HPO4, 0.86g NaH2 PO4 and 0.2 g MgSO4 7H2 O per 200 ml of H2 O) and 0.1 ml of 10 mg/ml of NAD solution and the absorbance is measured at 340 nm. 0.02 ml of galactose dehydrogenase (Boehringer Corp. Ltd.) is added, the solutions incubated at 37° C. for 30 minutes and the absorbance again measured at 340 nm.
# [2] = system: β-galactosidase of Bacillus stearothermophilus HRI strains, whole cell suspension; assay: β-galactosidase assay, toluene-treated whole cell suspension, ONPG or lactose as substrate; details: for Km: whole cell suspension, pH 7.0, 65° C.
# Protocol: The cells are shaken at room temperature for about 5 minutes, and then harvested by centrifugation at 6000 g for 20 minutes in an MSE "Hi Spin 21" centrifuge prior to washing with buffer. […] The relation of Harris and Kornberg (Proc. Roy. Soc. Lond. B. 1972, 182, 159) is used to determine the cell density, 0.33 mg. dry wt. of B. stearothermophilus corresponding to an absorbance of 1.0 at 680 n.m. The assay used is based on that of Lederberg (J. […] Assays are carried out at incubation temperature of 65° C. and after the appropriate time interval the reactions are halted by addition of 3 ml aliquots of 0.5 M sodium bicarbonate to each reaction mixture and immediate cooling in an ice bath. The absorbance of the resultant solutions is measured at 410 nm using a Perkin-Elmer 124 double beam spectrophotometer. In the case of whole cell suspensions the assay tubes are centrifuged and in the case of the immobilised cells the mixtures are filtered, to remove cells and polyacrylamide gel respectively prior to measurement of the absorbance. […] The reaction mixtures are incubated for 15 minutes at 65° C., reactions are halted by addition of 4.2% perchloric acid and the solutions are centrifuged. Aliquots of the supernatant solutions are assayed for glucose or galactose. Glucose is estimated by a modification of the method of Trinder (Ann. Clin. […] Ltd.), 0.15 ml peroxidase (Boehringer Corp. Ltd.), 100 mg of 4-aminophenazone and 300 mg of sodium azide) followed by incubation at 37° C. for 10 minutes and absorbance measurement at 515 nm. […] Ltd.) is added, the solutions incubated at 37° C. for 30 minutes and the absorbance again measured at 340 nm.
# [3] = system: β-galactosidase of Bacillus stearothermophilus HRI strains, entrapped whole cell preparation; assay: β-galactosidase assay, polyacrylamide gel entrapped (immobilised) whole cell preparation, ONPG or lactose as substrate; details: for Km: entrapped whole cell preparation, pH 7.0, 65° C.
# Protocol: Washed cells which have been toluene treated, as above, are resuspended in an equal volume of 50 mM sodium phosphate buffer, pH 7.0, containing acrylamide (200 g/l) and NN'-methylenebisacrylamide (20 g/l). Ammonium persulphate (2 […]) are added to this suspension which is then allowed to gel, and the gel is disrupted by forcing through a wire mesh, as described by Hjerten (Arch. Biochem. Biophys. […] The disrupted gel is freeze-dried to provide a stock of enzymatically active immobilised whole cell preparation. The assay used is based on that of Lederberg (J. […] Assays are carried out at incubation temperature of 65° C. and after the appropriate time interval the reactions are halted by addition of 3 ml aliquots of 0.5 M sodium bicarbonate to each reaction mixture and immediate cooling in an ice bath. The absorbance of the resultant solutions is measured at 410 nm using a Perkin-Elmer 124 double beam spectrophotometer. In the case of whole cell suspensions the assay tubes are centrifuged and in the case of the immobilised cells the mixtures are filtered, to remove cells and polyacrylamide gel respectively prior to measurement of the absorbance. […] The reaction mixtures are incubated for 15 minutes at 65° C., reactions are halted by addition of 4.2% perchloric acid and the solutions are centrifuged. Aliquots of the supernatant solutions are assayed for glucose or galactose. Glucose is estimated by a modification of the method of Trinder (Ann. Clin. […] Ltd.), 0.15 ml peroxidase (Boehringer Corp. Ltd.), 100 mg of 4-aminophenazone and 300 mg of sodium azide) followed by incubation at 37° C. for 10 minutes and absorbance measurement at 515 nm. […] Ltd.) is added, the solutions incubated at 37° C. for 30 minutes and the absorbance again measured at 340 nm.
# [4] = read-out: Km with lactose as substrate
# [5] = read-out: Michaelis constant (Km) with ONPG as substrate
smiles,measurement,setting,value
"N[C@@H](CS)C(=O)O [Cysteine, cysteine]",% Activity,"[1]; addition at 10 mM final, ONPG as substrate, purified enzyme, no addition = 100",98.1%
same,% Activity,"[2]; addition at 10 mM final, ONPG as substrate, whole cells, no addition = 100",103.7%
same,% Activity,"[3]; addition at 10 mM final, ONPG as substrate, immobilised whole cells, no addition = 100",109.4%
OC[C@H]1O[C@@H](O[C@H]2[C@H](O)[C@@H](O)C(O)O[C@@H]2CO)[C@H](O)[C@@H](O)[C@H]1O (some centres unmarked) [lactose],Km,"[1]; HRI enzyme, measured at 65° C., read-out: Michaelis constant (Km) for lactose",2100 µM
same,Km,"[1]; purified enzyme extract, pH 7.0, 65° C., read-out: Km with lactose as substrate",2060 µM
same,Km,[2]; [4],11800 µM
same,Km,[3]; [4],9520 µM
"O=[N+]([O-])c1ccccc1O[C@@H]1O[C@H](CO)[C@H](O)[C@H](O)[C@H]1O [ONPG, orthonitrophenyl-β-D-galactopyranoside, reference compound]",Km,"[1]; HRI enzyme, measured at 65° C., read-out: Michaelis constant (Km) for ONPG",430 µM
same,Km,"[1]; purified enzyme, pH 7.0, 65° C., read-out: Michaelis constant (Km) with ONPG as substrate",430 µM
same,Km,[2]; [5],380 µM
same,Km,[3]; [5],260 µM
